Assay results: ChEMBL document CHEMBL1649321, “Plasmid-mediated resistance to cephalosporins in Salmonella enterica serovar Typhi” (2010)
Converted amounts (≈) assume the structure as drawn.

Tests used:
[1] = test system: Salmonella typhi; test: Antimicrobial activity against Salmonella enterica serovar Typhi isolate 080049Ty by broth microdilution method; type: functional, Salmonella enterica subsp. enterica serovar Typhi
[2] = test system: Salmonella typhi; test: Antimicrobial activity against Salmonella enterica serovar Typhi isolate 080048Ty by broth microdilution method; type: functional, Salmonella enterica subsp. enterica serovar Typhi
[3] = test system: Escherichia coli; test: Antimicrobial activity against Escherichia coli W3110 transformant harboring bla CTX-M-15 gene by broth microdilution method; type: functional
[4] = test system: Salmonella typhi; test: Antimicrobial activity against Salmonella enterica serovar Typhi isolate 080048Ty transconjugant harboring bla CTX-M-15 gene by broth microdilution method; type: functional, Salmonella enterica subsp. enterica serovar Typhi
[5] = test system: Salmonella typhi; test: Antimicrobial activity against Salmonella enterica serovar Typhi isolate 080049Ty by broth microdilution method in presence of beta-lactamase inhibitor clavulanic acid; type: functional, Salmonella enterica subsp. enterica serovar Typhi
[6] = test system: Salmonella typhi; test: Antimicrobial activity against Salmonella enterica serovar Typhi isolate 080048Ty by broth microdilution method in presence of beta-lactamase inhibitor clavulanic acid; type: functional, Salmonella enterica subsp. enterica serovar Typhi
[7] = test system: Escherichia coli; test: Antimicrobial activity against Escherichia coli W3110 transformant harboring bla CTX-M-15 gene by broth microdilution method in presence of beta-lactamase inhibitor clavulanic acid; type: functional
[8] = test system: Salmonella typhi; test: Antimicrobial activity against Salmonella enterica serovar Typhi isolate 080048Ty transconjugant harboring bla CTX-M-15 gene by broth microdilution method in presence of beta-lactamase inhibitor clavulanic acid; type: functional, Salmonella enterica subsp. enterica serovar Typhi

With CC1(C)S[C@@H]2[C@H](NC(=O)[C@H](N)c3ccccc3)C(=O)N2[C@H]1C(=O)O [AMPICILLIN] the MIC [1] was greater than 64 µg/mL, the MIC [2] was less than 2 µg/mL and the MIC [3] was greater than 64 µg/mL. For the same compound, the MIC [4] was greater than 64 µg/mL.
CO/N=C(\C(=O)N[C@@H]1C(=O)N2C(C(=O)O)=C(COC(C)=O)CS[C@H]12)c1csc(N)n1 [CEFOTAXIME] gave an MIC [1] greater than 128 µg/mL, an MIC [2] of 0.125 µg/mL (≈ 0.274 µM) and an MIC [3] greater than 128 µg/mL. It also gave an MIC [4] greater than 128 µg/mL, an MIC [5] of less than 0.125 µg/mL and an MIC [6] of less than 0.125 µg/mL. The MIC [7] was less than 0.125 µg/mL and the MIC [8] was less than 0.125 µg/mL.
Compound CC(C)(O/N=C(\C(=O)N[C@@H]1C(=O)N2C(C(=O)[O-])=C(C[n+]3ccccc3)CS[C@H]12)c1csc(N)n1)C(=O)O [CEFTAZIDIME] has an MIC [1] of 64 µg/mL (≈ 117 µM), an MIC [2] of 1 µg/mL (≈ 1.83 µM) and an MIC [3] of 64 µg/mL (≈ 117 µM). The MIC [4] was 64 µg/mL (≈ 117 µM), the MIC [5] was 0.25 µg/mL and the MIC [6] was 0.25 µg/mL. For the same compound, the MIC [7] was 0.25 µg/mL and the MIC [8] was 0.25 µg/mL.
Compound CO/N=C(\C(=O)N[C@@H]1C(=O)N2C(C(=O)O)=C(CSc3nc(=O)c(O)nn3C)CS[C@H]12)c1csc(N)n1 [CEFTRIAXONE] has an MIC [1] greater than 128 µg/mL, an MIC [2] of 0.125 µg/mL (≈ 0.225 µM) and an MIC [3] greater than 128 µg/mL. It also gave an MIC [4] greater than 128 µg/mL.
Compound CCn1cc(C(=O)O)c(=O)c2ccc(C)nc21 [NALIDIXIC ACID] has an MIC [1] greater than 64 µg/mL, an MIC [2] greater than 64 µg/mL and an MIC [3] of 32 µg/mL (≈ 138 µM). It also gave an MIC [4] greater than 64 µg/mL.
